# Reference: patent US20230398130A1, “METHODS AND COMPOSITIONS FOR DIFFERENTIATING STEM CELLS” (Massachusetts Institute of Technology, priority 2020, published 2023)
# Assays:
# [1] = test system: ISC-enriched organoids; assay: Primary screen, 384-well 2.5-D organoid differentiation (ENR+CD, 6 days): basal lysozyme secretion (LYZ.NS); assay type: cell-based, murine; conditions: for Dose.FC.LYZ.NS (log 2 fold change): vs plate median; for Dose.FC.LYZ.NS: FC vs plate median; for Z.LYZ.NS: standard z score of FC
# Description: (§1) High-throughput screening.
# [2] = test system: ISC-enriched organoids; assay: Primary screen, 384-well 2.5-D organoid differentiation (ENR+CD, 6 days, Target Selective Inhibitor Library, vs whole-plate median): ATP (CellTiter-Glo 3D, CTG); conditions: for Dose.FC.CTG (log 2 fold change): vs plate median; for Dose.FC.CTG: FC vs plate median; for Z.CTG: standard z score of FC
# [3] = test system: ISC-enriched organoids; assay: Primary screen, 384-well 2.5-D organoid differentiation (ENR+CD, 6 days): carbachol-induced lysozyme secretion (LYZ.S); assay type: cell-based, murine; conditions: for Dose.FC.LYZ.S (log 2 fold change): vs plate median; for Dose.FC.LYZ.S: FC vs plate median
# Description: as §1
# [4] = primary screen, dose 0.08 uM, ENR+CD 6 days
# [5] = primary screen, dose 0.40 uM, ENR+CD 6 days
# [6] = primary screen, dose 2.00 uM, ENR+CD 6 days
# [7] = primary screen, dose 10.00 uM, ENR+CD 6 days
# [8] = dose 0.08 uM (1st of 4 lines per treatment; dose not printed in this part)
# [9] = dose 0.40 uM (2nd of 4 lines per treatment; dose not printed in this part)
# [10] = dose 2.00 uM (3rd of 4 lines per treatment; dose not printed in this part)
# [11] = dose 10.00 uM (4th of 4 lines per treatment; dose not printed in this part)
structure (smiles),measurement,setting,value
O=C(NCc1cccc(O)c1)Nc1nc(-c2ccncc2)cs1 [RKI-1447],Z.LYZ.NS (standard z score),"[1]; Dose 0.08 uM, primary screen",−0.055
same,Dose.FC.LYZ.NS (log 2 fold change),"[1]; Dose 0.08 uM, primary screen",−0.006
same,Z.LYZ.NS (standard z score),"[1]; Dose 0.40 uM, primary screen",−0.803
same,Dose.FC.LYZ.NS (log 2 fold change),"[1]; Dose 0.40 uM, primary screen",−0.092
same,Z.LYZ.NS (standard z score),"[1]; Dose 2.00 uM, primary screen",−0.077
same,Dose.FC.LYZ.NS (log 2 fold change),"[1]; Dose 2.00 uM, primary screen",−0.009
same,Z.LYZ.NS (standard z score),"[1]; Dose 10.00 uM, primary screen",−1.594
same,Dose.FC.LYZ.NS (log 2 fold change),"[1]; Dose 10.00 uM, primary screen",−0.183
same,Z.CTG (standard z score),"[2]; Dose 0.08 uM, primary screen",−0.948
same,Dose.FC.CTG (log 2 fold change),"[2]; Dose 0.08 uM, primary screen",−0.397
same,Z.CTG (standard z score),"[2]; Dose 0.40 uM, primary screen",−0.441
same,Dose.FC.CTG (log 2 fold change),"[2]; Dose 0.40 uM, primary screen",−0.184
same,Z.CTG (standard z score),"[2]; Dose 2.00 uM, primary screen",−0.540
same,Dose.FC.CTG (log 2 fold change),"[2]; Dose 2.00 uM, primary screen",−0.226
same,Z.CTG (standard z score),"[2]; Dose 10.00 uM, primary screen",−0.816
same,Dose.FC.CTG (log 2 fold change),"[2]; Dose 10.00 uM, primary screen",−0.342
same,Dose.FC.LYZ.S (log 2 fold change),"[3]; Dose 0.08 uM, primary screen",−0.056
same,Dose.FC.LYZ.S (log 2 fold change),"[3]; Dose 0.40 uM, primary screen",−0.064
same,Dose.FC.LYZ.S (log 2 fold change),"[3]; Dose 2.00 uM, primary screen",−0.017
same,Dose.FC.LYZ.S (log 2 fold change),"[3]; Dose 10.00 uM, primary screen",−0.297
Cc1ccc2c(=O)c3cccc(CC(=O)O)c3oc2c1C [DMXAA (Vadimezan)],Dose.FC.LYZ.NS,"[1]; Dose 0.08 uM, ENR+CD, 6 days",−0.007 log 2 fold change
same,Z.LYZ.NS,[1]; Dose 0.08 uM,−0.065
same,Dose.FC.LYZ.NS,"[1]; Dose 0.40 uM, ENR+CD, 6 days",−0.036 log 2 fold change
same,Z.LYZ.NS,[1]; Dose 0.40 uM,−0.317
same,Dose.FC.LYZ.NS,"[1]; Dose 2.00 uM, ENR+CD, 6 days",−0.038 log 2 fold change
same,Z.LYZ.NS,[1]; Dose 2.00 uM,−0.334
same,Dose.FC.LYZ.NS,"[1]; Dose 10.00 uM, ENR+CD, 6 days",−0.031 log 2 fold change
same,Z.LYZ.NS,[1]; Dose 10.00 uM,−0.271
same,Dose.FC.CTG,"[2]; Dose 0.08 uM, ENR+CD, 6 days",−0.568 log 2 fold change
same,Z.CTG,[2]; Dose 0.08 uM,−1.357
same,Dose.FC.CTG,"[2]; Dose 0.40 uM, ENR+CD, 6 days",−0.629 log 2 fold change
same,Z.CTG,[2]; Dose 0.40 uM,−1.502
same,Dose.FC.CTG,"[2]; Dose 2.00 uM, ENR+CD, 6 days",−0.477 log 2 fold change
same,Z.CTG,[2]; Dose 2.00 uM,−1.139
same,Dose.FC.CTG,"[2]; Dose 10.00 uM, ENR+CD, 6 days",−0.230 log 2 fold change
same,Z.CTG,[2]; Dose 10.00 uM,−0.550
same,Dose.FC.LYZ.S,"[3]; Dose 0.08 uM, ENR+CD, 6 days",−0.091 log 2 fold change
same,Dose.FC.LYZ.S,"[3]; Dose 0.40 uM, ENR+CD, 6 days",−0.009 log 2 fold change
same,Dose.FC.LYZ.S,"[3]; Dose 2.00 uM, ENR+CD, 6 days",−0.094 log 2 fold change
same,Dose.FC.LYZ.S,"[3]; Dose 10.00 uM, ENR+CD, 6 days",−0.118 log 2 fold change
C/C(=C\C(=O)Nc1ccccc1C(=O)O)c1ccc2ccccc2c1 [BIBR 1532],Dose.FC.LYZ.NS,[1]; [4],0.032 log 2 fold change
same,Z.LYZ.NS,"[1]; primary screen, dose 0.08 uM",0.282
same,Dose.FC.LYZ.NS,[1]; [5],0.043 log 2 fold change
same,Z.LYZ.NS,"[1]; primary screen, dose 0.40 uM",0.377
same,Dose.FC.LYZ.NS,[1]; [6],−0.013 log 2 fold change
same,Z.LYZ.NS,"[1]; primary screen, dose 2.00 uM",−0.117
same,Dose.FC.LYZ.NS,[1]; [7],−0.062 log 2 fold change
same,Z.LYZ.NS,"[1]; primary screen, dose 10.00 uM",−0.536
same,Dose.FC.CTG,[2]; [4],0.223 log 2 fold change
same,Z.CTG,"[2]; primary screen, dose 0.08 uM",0.533
same,Dose.FC.CTG,[2]; [5],−0.047 log 2 fold change
same,Z.CTG,"[2]; primary screen, dose 0.40 uM",−0.113
same,Dose.FC.CTG,[2]; [6],−0.034 log 2 fold change
same,Z.CTG,"[2]; primary screen, dose 2.00 uM",−0.080
same,Dose.FC.CTG,[2]; [7],0.030 log 2 fold change
same,Z.CTG,"[2]; primary screen, dose 10.00 uM",0.072
same,Dose.FC.LYZ.S,[3]; [4],0.028 log 2 fold change
same,Dose.FC.LYZ.S,[3]; [5],0.107 log 2 fold change
same,Dose.FC.LYZ.S,[3]; [6],−0.081 log 2 fold change
same,Dose.FC.LYZ.S,[3]; [7],−0.114 log 2 fold change
O=C(O)C(Cc1ccccc1[N+](=O)[O-])=NNc1nc(-c2ccc(Cl)c(Cl)c2)cs1 (mixture of isomers) [4EGI-1],SSMD.LYZ.NS_Rep (strictly standardized mean difference),[1]; [8],0.378
same,SSMD.LYZ.NS_Rep (strictly standardized mean difference),[1]; [9],0.264
same,SSMD.LYZ.NS_Rep (strictly standardized mean difference),[1]; [10],0.252
same,SSMD.LYZ.NS_Rep (strictly standardized mean difference),[1]; [11],−0.257
same,Dose.FC.LYZ.NS,[1]; [4],0.110 log 2 fold change
same,Z.LYZ.NS,"[1]; primary screen, dose 0.08 uM",0.956
same,Dose.FC.LYZ.NS,[1]; [5],0.036 log 2 fold change
same,Z.LYZ.NS,"[1]; primary screen, dose 0.40 uM",0.315
same,Dose.FC.LYZ.NS,[1]; [6],0.069 log 2 fold change
same,Z.LYZ.NS,"[1]; primary screen, dose 2.00 uM",0.597
same,Dose.FC.LYZ.NS,[1]; [7],−0.034 log 2 fold change
same,Z.LYZ.NS,"[1]; primary screen, dose 10.00 uM",−0.300
same,SSMD.CTG_Rep (strictly standardized mean difference),[2]; [8],−0.352
same,SSMD.CTG_Rep (strictly standardized mean difference),[2]; [9],−0.158
same,SSMD.CTG_Rep (strictly standardized mean difference),[2]; [10],0.407
same,SSMD.CTG_Rep (strictly standardized mean difference),[2]; [11],−0.283
same,Dose.FC.CTG,[2]; [4],−0.160 log 2 fold change
same,Z.CTG,"[2]; primary screen, dose 0.08 uM",−0.383
same,Dose.FC.CTG,[2]; [5],−0.131 log 2 fold change
same,Z.CTG,"[2]; primary screen, dose 0.40 uM",−0.314
same,Dose.FC.CTG,[2]; [6],0.127 log 2 fold change
same,Z.CTG,"[2]; primary screen, dose 2.00 uM",0.304
same,Dose.FC.CTG,[2]; [7],−0.109 log 2 fold change
same,Z.CTG,"[2]; primary screen, dose 10.00 uM",−0.261
same,SSMD.LYZ.S_Rep (strictly standardized mean difference),[3]; [8],−0.264
same,Z.LYZ.S (standard z score),[3]; [8],−0.236
same,SSMD.LYZ.S_Rep (strictly standardized mean difference),[3]; [9],0.326
same,Z.LYZ.S (standard z score),[3]; [9],0.352
same,SSMD.LYZ.S_Rep (strictly standardized mean difference),[3]; [10],−0.328
same,Z.LYZ.S (standard z score),[3]; [10],−0.380
same,SSMD.LYZ.S_Rep (strictly standardized mean difference),[3]; [11],0.189
same,Z.LYZ.S (standard z score),[3]; [11],0.366
same,Dose.FC.LYZ.S,[3]; [4],−0.037 log 2 fold change
same,Dose.FC.LYZ.S,[3]; [5],0.054 log 2 fold change
same,Dose.FC.LYZ.S,[3]; [6],−0.059 log 2 fold change
same,Dose.FC.LYZ.S,[3]; [7],0.057 log 2 fold change
